In DBAASP one finds MIC data, which are given here for four molecules.

In brackets after ≈: the same amount, converted by molar mass. Several values for one entry are separate records, joined by “and”; a condition that tells them apart may be missing. Equal entries are not always repeated.

Common to all, as to assay: ≥ marks a high value that may be exact or a test limit, other limits are often not marked, values filed in µg/mL are converted to µM
The subject of experiment [1] is Pseudomonas aeruginosa PA214.
Experiment [2] relates to Pseudomonas aeruginosa PAO1.
The subject of experiment [3] is Escherichia coli K-12.
The test system of experiment [4] is Pseudomonas aeruginosa PA287.
Experiment [5] concerns Streptococcus pyogenes ATCC 19615.
Experiment [6] deals with Salmonella enterica subsp. enterica serovar Typhimurium ATCC 14028s.
Experiment [7] relates to Staphylococcus haemolyticus.
Experiment [8] has as its system Pseudomonas aeruginosa H103.
For experiment [9], the system named is Enterococcus faecalis ATCC 29212.
For experiment [10], the system named is Corynebacterium xerosis.
The test system of experiment [11] is Candida albicans CAN105.
The subject of experiment [12] is Staphylococcus aureus ATCC 25923.
Experiment [13] has as its system Pseudomonas aeruginosa K799.
Experiment [14] relates to Pseudomonas aeruginosa H374.
The subject of experiment [15] is Burkholderia cepacia ATCC 25416.
Experiment [16] has as its system Escherichia coli O111:B4.
Experiment [17] relates to Escherichia coli UB1005.
In experiment [18] the test system is Pseudomonas aeruginosa H547.
Experiment [19] deals with Acinetobacter calcoaceticus ATCC 23055.
The subject of experiment [20] is Enterobacter cloacae ATCC 13047.
For experiment [21], the system named is Stenotrophomonas maltophilia ATCC 13637.
For experiment [22], the system named is Listeria monocytogenes NCTC 7973.
In experiment [23] the test system is Pseudomonas aeruginosa H744.
Experiment [24] has as its system Pseudomonas aeruginosa Z61.
The subject of experiment [25] is Staphylococcus aureus K147.
The subject of experiment [26] is Pseudomonas aeruginosa ATCC 27853.
For experiment [27], the system named is Staphylococcus aureus SAP 0017.
Experiment [28] relates to Pseudomonas aeruginosa H187.
Experiment [29] relates to Staphylococcus epidermidis.
The test system of experiment [30] is Pseudomonas aeruginosa KCTC 1637.
Experiment [31] deals with Acinetobacter baumannii CCARM 12035.
Experiment [32] deals with Enterococcus faecalis KCTC 2011.
In experiment [33] the test system is Escherichia coli CCARM 1229.
The test system of experiment [34] is Staphylococcus aureus KCTC 1621.
Experiment [35] relates to Salmonella typhimurium CCARM 8009.
For experiment [36], the system named is Salmonella typhimurium KCTC 1926.
The subject of experiment [37] is Bacillus subtilis KCTC 3068.
Experiment [38] relates to Escherichia coli KCTC 1682.
For experiment [39], the system named is Pseudomonas aeruginosa CCARM 2095.
Experiment [40] relates to Escherichia coli BW25113 ΔsbmA.
Experiment [41] deals with Klebsiella pneumoniae ATCC 700603.
For experiment [42], the system named is Escherichia coli BW25113.
Experiment [43] has as its system Escherichia coli.
Experiment [44] concerns Acinetobacter baumannii ATCC 19606.

Regarding `C[C@H](NC(=O)[C@H](C)NC(=O)[C@H](CCCCN)NC(=O)[C@H](Cc1ccccc1)NC(=O)[C@H](C)NC(=O)[C@H](CCCCN)NC(=O)[C@H](C)NC(=O)[C@H](Cc1c[nH]c2ccccc12)NC(=O)[C@H](C)NC(=O)[C@H](CCCCN)NC(=O)[C@H](C)NC(=O)[C@H](Cc1ccccc1)NC(=O)[C@H](C)NC(=O)[C@H](C)NC(=O)[C@H](CCCCN)NC(=O)[C@H](CCCCN)NC(=O)[C@@H](N)CCCCN)C(N)=O` [KKKAAFAKAWAKAFKAA], the minimal inhibitory concentration (MIC) was not below 50 µM in experiment [1], 50 µM (≈ 91.8 µg/mL) in [2], 25 µM (≈ 45.9 µg/mL) in experiment [3] and not below 50 µM in [4].

Turning to `CC[C@H](C)[C@H](NC(=O)[C@H](CC(C)C)NC(=O)[C@H](C)NC(=O)[C@@H]1CCCN1C(=O)[C@H](CC(C)C)NC(=O)CNC(=O)[C@@H](NC(=O)[C@@H](NC(=O)[C@H](CC(C)C)NC(=O)[C@@H](NC(=O)[C@H](CCCCN)NC(=O)[C@H](CCCCN)NC(=O)[C@@H](NC(=O)[C@H](C)NC(=O)[C@@H](NC(=O)[C@@H](NC(=O)[C@H](CC(C)C)NC(=O)[C@H](CCCCN)NC(=O)[C@H](CCCCN)NC(=O)[C@@H](NC(=O)[C@H](Cc1ccccc1)NC(=O)[C@H](CO)NC(=O)[C@H](CCCCN)NC(=O)[C@H](Cc1c[nH]c2ccccc12)NC(=O)[C@@H](N)CCCCN)[C@@H](C)CC)[C@@H](C)O)[C@@H](C)O)C(C)C)C(C)C)[C@@H](C)O)[C@@H](C)O)C(=O)N[C@@H](CO)C(=O)O` [KWKSFIKKLTTAVKKVLTTGLPALIS], the MIC in [5] is 2.79 µM (≈ 8 µg/mL); in [6] it was 0.696 µM (≈ 2 µg/mL); in [7] it was 2.79 µM and 5.57 µM; in experiment [8] it was 1.39 µM (≈ 4 µg/mL); in experiment [9], 22.3 µM (≈ 64 µg/mL); in experiment [10], 0.696 µM (≈ 2 µg/mL). For the same molecule, the MIC turned out to be 11.1 µM (≈ 32 µg/mL) in experiment [11]; 2.79 µM (≈ 8 µg/mL) in [12]; 2.09 µM (≈ 6 µg/mL) in [13]; 0.696 µM (≈ 2 µg/mL) in [14]; 22.3 µM (≈ 64 µg/mL) in experiment [15]; 0.696 µM (≈ 2 µg/mL) in [16]. Also, the minimal inhibitory concentration (MIC) in [17] is 0.696 µM (≈ 2 µg/mL); in [18], 0.696 µM (≈ 2 µg/mL); in [19], 1.39 µM (≈ 4 µg/mL); in experiment [20], 0.696 µM (≈ 2 µg/mL); in experiment [21] it was 1.04 µM (≈ 3 µg/mL); in experiment [22] it was 1.39 µM (≈ 4 µg/mL). Besides, the minimal inhibitory concentration (MIC) in [23] came to 0.696 µM (≈ 2 µg/mL); in [24] it was 1.04 µM (≈ 3 µg/mL); in [25], 11.1 µM (≈ 32 µg/mL); in experiment [26], 5.57 µM (≈ 16 µg/mL); in [27] it was 2.79 µM (≈ 8 µg/mL); in experiment [28], 5.57 µM (≈ 16 µg/mL). The molecule also gave a minimum inhibitory concentration (MIC) in [29] of 5.57 µM (≈ 16 µg/mL).

As for `CC[C@H](C)[C@H](NC(=O)CNC(=O)[C@H](CC(=O)O)NC(=O)[C@H](CCCN=C(N)N)NC(=O)[C@@H](NC(=O)[C@H](CC(N)=O)NC(=O)[C@H](CCCN=C(N)N)NC(=O)CNC(=O)[C@@H](NC(=O)[C@H](CCCCN)NC(=O)[C@H](CCC(=O)O)NC(=O)[C@@H](NC(=O)[C@H](CCCCN)NC(=O)[C@H](CCCCN)NC(=O)[C@H](C)NC(=O)[C@@H](NC(=O)[C@H](CCCCN)NC(=O)[C@H](C)NC(=O)[C@@H](N)CCCN=C(N)N)[C@@H](C)CC)[C@@H](C)CC)C(C)C)C(C)C)C(=O)N[C@H](C(=O)N[C@@H](CCCCN)C(=O)N[C@@H](C)C(N)=O)[C@@H](C)CC` [RAKIAKKIEKVGRNVRDGIIKA], the MIC in experiment [30] is 8 µM (≈ 19.7 µg/mL); in [31], not below 32 µM; in experiment [32], not below 128 µM; in experiment [33], 4 µM (≈ 9.85 µg/mL); in experiment [34], not below 128 µM; in experiment [35], 8 µM (≈ 19.7 µg/mL). For the same molecule, the MIC was 4 µM (≈ 9.85 µg/mL) in experiment [36], not below 128 µM in [37], 2 µM (≈ 4.93 µg/mL) in experiment [38] and 16 µM (≈ 39.4 µg/mL) in [39].

On to `CC[C@H](C)[C@H](NC(=O)[C@@H]1CCCN1C(=O)[C@H](Cc1c[nH]c2ccccc12)NC(=O)[C@H](CCCN=C(N)N)NC(=O)[C@H](Cc1ccccc1)NC(=O)[C@@H](N)CCCN=C(N)N)C(=O)N[C@@H](CCCN=C(N)N)C(=O)N[C@@H](CCCN=C(N)N)C(=O)N1CCC[C@H]1C(=O)N1CCC[C@H]1C(=O)N[C@H](C(=O)N[C@@H](CCCN=C(N)N)C(=O)N1CCC[C@H]1C(=O)N1CCC[C@H]1C(=O)N[C@@H](Cc1ccccc1)C(=O)N[C@@H](Cc1ccc(O)cc1)C(=O)N[C@@H](CCCN=C(N)N)C(=O)O)[C@@H](C)CC` [RFRWPIRRPPIRPPFYR], for which the minimum inhibitory concentration (MIC) in [40] is 8 µM (≈ 18.5 µg/mL); in experiment [12] it was more than 64 µM; in experiment [41] it was 24 µM (≈ 55.5 µg/mL); in experiment [42], 4 µM (≈ 9.24 µg/mL); in experiment [26], 64 µM (≈ 148 µg/mL); in [43], 2.83 µM (≈ 6.54 µg/mL). Also, the minimal inhibitory concentration (MIC) in [44] came out at 8 µM (≈ 18.5 µg/mL).

Usually MIC stands for the smallest concentration in the dilution series that meets the test's criterion for growth inhibition.
